Laboratory results: patent publication US8722616B2, “Anti-HIV peptides and methods of use thereof” (priority 2009, dated 2014)
Non-standard residues stand in square brackets, D forms with d. Residues, ends and D or L forms follow the SMILES beside them. No end group written: not given here. Phg = N[C@H](C(=O)O)c1ccccc1

Assays:
[1] = Cytotoxicity in the CPE assay (XTT, 50% reduction in cell viability); conditions: human
Experimental: (§1) Anti-HIV cytopathic effect inhibition assays were conducted as described (Buckheit et al. (1995) Antimicrob. Agents Chemother., 39:2718-2727). In brief, serially diluted peptides were added to a 96-well round bottom microtiter plate in triplicate. CEM-SS cells at a concentration of 2.5×10^3 cells per well and HIV-1IIIB at the appropriate pre-determined titer were sequentially added to the microtiter plate. The cultures were incubated at 5% CO2/37° C. for six days. Following the incubation, the microtiter plates were stained with XTT tetrazolium dye to evaluate the efficacy and toxicity of the test compound(s).
as §1, with “Cytopathic Effect (CPE) Inhibition Assay: The CPE assay was performed” for “Anti-HIV cytopathic effect inhibition assays were conducted”, “as previously” for “as”, “Briefly,” for “In brief,”, “compound was” for “peptides were”

HIV-1IIIB = assay: microbe, parasite or virus in culture
Experimental: as §1
as §1, with “Cytopathic Effect (CPE) Inhibition Assay: The CPE assay was performed” for “Anti-HIV cytopathic effect inhibition assays were conducted”, “as previously” for “as”, “Briefly,” for “In brief,”, “compound was” for “peptides were”

CEM-SS cells = assay: Cytotoxicity in the CPE assay (XTT, 50% reduction in cell viability)
Experimental: as §1
as §1, with “Cytopathic Effect (CPE) Inhibition Assay: The CPE assay was performed” for “Anti-HIV cytopathic effect inhibition assays were conducted”, “as previously” for “as”, “Briefly,” for “In brief,”, “compound was” for “peptides were”

[2] = Table 4, LL-37-derived peptides, CEM-SS cells
[3] = Table 1, CEM-SS cells, HIV-1IIIB, six days, 50% inhibition of virus replication
[4] = read-out: TC50, Table 1, CEM-SS cells, six days, 50% reduction in cell viability
[5] = >100 μg/ml defined as HIV inactive
[6] = read-out: TC50, Table 2, CEM-S cells
[7] = Table 2, sequence shuffling, CEM-S cells
[8] = read-out: TC50, Table 3, CEM-SS cells

CC[C@H](C)[C@H](NC(=O)[C@H](CCCCN)NC(=O)[C@H](CCCCN)NC(=O)[C@H](Cc1ccccc1)NC(=O)[C@H](CC(C)C)NC(=O)[C@H](CCCCN)NC(=O)[C@H](CCCCN)NC(=O)[C@@H](NC(=O)[C@H](CCCCN)NC(=O)[C@H](CCCCN)NC(=O)[C@H](CCCNC(=N)N)NC(=O)[C@@H](NC(=O)[C@H](CCCNC(=N)N)NC(=O)[C@H](CCCCN)NC(=O)[C@H](Cc1ccccc1)NC(=O)[C@H](CCCNC(=N)N)NC(=O)CN)c1ccccc1)c1ccccc1)C(=O)N[C@@H](CO)C(N)=O [BMAP-18X6X10, GRFKRXRKKXKKLFKKIS] (H-GRFKR[Phg]RKK[Phg]KKLFKKIS-NH2)
CC50 at 6 days ([1]; CEM-SS cells): 10.2 µM
EC50 (HIV-1IIIB; Table 5, BMAP-27-derived peptides, CEM-SS cells): 0.68 µM

CC[C@@H](C)[C@@H](NC(=O)[C@H](CCCNC(=N)N)NC(=O)[C@H](CCC(N)=O)NC(=O)[C@@H](NC(=O)[C@@H](NC(=O)[C@H](CCCNC(=N)N)NC(=O)[C@H](CCCCN)NC(=O)[C@H](Cc1ccccc1)NC(=O)CN)[C@@H](C)CC)C(C)C)C(=O)N[C@@H](CCCCN)C(=O)N[C@@H](CC(=O)O)C(=O)N[C@@H](Cc1ccccc1)C(=O)N[C@@H](CC(C)C)C(=O)N[C@@H](CCCNC(=N)N)C(=O)N[C@@H](CC(N)=O)C(=O)N[C@@H](CC(C)C)C(=O)N[C@H](C(N)=O)C(C)C [GF-17d1]
CC50 at 6 days ([1]; CEM-SS cells): 22.7 µM
EC50 (HIV-1IIIB; [2]): > 47.5 µM

CC[C@@H](C)[C@@H](NC(=O)[C@H](CCCNC(=N)N)NC(=O)[C@H](CCC(N)=O)NC(=O)[C@@H](NC(=O)[C@@H](NC(=O)[C@H](CCCNC(=N)N)NC(=O)[C@H](CCCCN)NC(=O)[C@H](Cc1ccccc1)NC(=O)CN)[C@@H](C)CC)C(C)C)C(=O)N[C@@H](CCCCN)C(=O)N[C@@H](CC(=O)O)C(=O)N[C@@H](Cc1ccccc1)C(=O)N[C@H](CC(C)C)C(=O)N[C@@H](CCCNC(=N)N)C(=O)N[C@@H](CC(N)=O)C(=O)N[C@@H](CC(C)C)C(=O)N[C@H](C(N)=O)C(C)C [GF-17d2]
CC50 at 6 days ([1]; CEM-SS cells): > 47.5 µM
EC50 (HIV-1IIIB; [2]): > 47.5 µM

CC[C@H](C)[C@H](NC(=O)CN)C(=O)N[C@@H](CCCCN)C(=O)N[C@@H](CCC(=O)O)C(=O)N[C@H](C(=O)N[C@@H](CCCCN)C(=O)N[C@@H](CCCNC(=N)N)C(=O)N[C@H](C(=O)N[C@H](C(=O)N[C@@H](CCC(N)=O)C(=O)N[C@@H](CCCNC(=N)N)C(=O)N[C@H](C(=O)N[C@@H](CCCCN)C(=O)N[C@@H](CC(=O)O)C(=O)N[C@@H](Cc1ccccc1)C(=O)N[C@@H](CC(C)C)C(=O)N[C@@H](CCCNC(=N)N)C(=O)N[C@@H](CC(N)=O)C(=O)N[C@@H](CC(C)C)C(=O)N[C@H](C(N)=O)C(C)C)[C@@H](C)CC)C(C)C)[C@@H](C)CC)c1ccccc1 [GI-20X17, GIKEXKRIVQRIKDFLRNLV] (H-GIKE[Phg]KRIVQRIKDFLRNLV-NH2)
CC50 at 6 days ([1]; CEM-SS cells): 7.3 µM
EC50 (HIV-1IIIB; [2]): > 40.6 µM

FFGKVLKLIRKIF-NH2 [Peptide D76]
CC50 at 6 days [1]: 6.78 µM
EC50 (HIV-1IIIB; [3]): 0.63 µM

FFHHIFRGIVHVGKTIHRLVTG [Piscidin 1, reference compound]
CC50 (CEM-SS cells; [4]): 6.9 µM

FKRIVQRIKDFLR-NH2 [FK-13]
CC50 at 6 days [1]: 10.4 µM
EC50 (HIV-1IIIB; [5]): 5.9 µg/mL
EC50 (HIV-1IIIB; [2]): 3.4 µM

FLFPLITSFLSKVL [Ranatuerin 9, reference compound]
CC50 [1]: 34.6 µM
EC50 (HIV-1IIIB; 1IIIB): 16.7 µM

FRPALIVRTKGTRL [Hyposin-5, reference compound]
CC50 [1]: > 61.4 µM
EC50 (HIV-1IIIB; 1IIIB): > 61.4 µM

GAWKNFWSSLRKGFYDGEAGRAIRR [Peptide D94, reference compound]
CC50 (CEM-SS cells; [4]): > 34.1 µM
EC50 (HIV-1IIIB; [3]): > 34.1 µM

GFGKAFHSVSNFAKKHKTA-NH2 [Styelin A, reference compound] [listing 1 of 2 here]
EC50 (HIV-1IIIB; [3]): > 48.5 µM

GFGKAFHSVSNFAKKHKTA-NH2 [Styelin A, reference compound] [listing 2 of 2 here]
CC50 (CEM-SS cells; [4]): > 48.5 µM

GFLDIIEKIAKSW [Peptide B7]
CC50 (CEM-SS cells; [6]): > 65.8 µM
EC50 (HIV-1IIIB; [7]): 10.5 µM

GFLSILKKVLPKVMAHMK-NH2 [Melectin, reference compound]
CC50 (CEM-SS cells; [4]): 7.75 µM

GFNEIVQDIEDFLQNLV-NH2 [GF17-]
CC50 [1]: > 25.1 µM
EC50 (HIV-1IIIB; 1IIIB): > 25.1 µM

GIFDKLAKEISIW [Peptide B5]
CC50 (CEM-SS cells; [6]): > 65.8 µM
EC50 (HIV-1IIIB; [7]): > 65.8 µM

GIIDIAKKLFESW [Peptide B3]
CC50 (CEM-SS cells): > 65.8 µM
EC50 (HIV-1IIIB; 1IIIB): 20.1 µM

GIWDTIKSMGKVFAGKILQNL-NH2 [Brevinin-2-related, reference compound]
CC50 (CEM-SS cells): 7.42 µM

GIWSDLAEIIKKF [Peptide B6]
CC50 (CEM-SS cells; [6]): > 65.8 µM

GKPRPYSPRPTSHPRPIRV [Drosocin, reference compound]
CC50 (CEM-SS cells; [4]): > 45.5 µM
EC50 (HIV-1IIIB; [3]): > 45.5 µM

GLFDIIKKIAESW [Peptide B1]
CC50 (CEM-SS cells; [6]): 37 µM
EC50 (HIV-1IIIB; [7]): 11.7 µM

GLNTLKKVFQGLHEAIKLINNHVQ [Psuedin 1, reference compound] [listing 1 of 2 here]
EC50 (HIV-1IIIB; [3]): 35.7 µM

GLNTLKKVFQGLHEAIKLINNHVQ [Psuedin 1, reference compound] [listing 2 of 2 here]
CC50 (CEM-SS cells; [4]): > 36.8 µM

GLRRLLGRLLRRLGRLLLR [GLR-19]
CC50 (CEM-SS cells; [8]): 25.7 µM
EC50 (HIV-1IIIB; Table 3, CEM-SS cells): 4.4 µM

GLRSKIWLWVLLMIWQESNKFKKM [DRS S9, reference compound]
CC50 (CEM-SS cells; [8]): > 32.9 µM
EC50 (HIV-1IIIB; Table 3, CEM-SS cells): 31.6 µM

GLRSRIWLWVLLMIWQESNRFKRM [DRS S9r3]
CC50 (CEM-SS cells; [8]): > 32.1 µM
EC50 (HIV-1IIIB; Table 3, CEM-SS cells): 1.25 µM

GLWEKIDKFASII [Peptide B2]
CC50 (CEM-SS cells; [6]): > 65.8 µM
EC50 (HIV-1IIIB; [7]): > 65.8 µM

GMASKAGAIAGKIAKVALKAL-NH2 [PGLa, reference compound]
CC50 (CEM-SS cells; [4]): > 50.8 µM
EC50 (HIV-1IIIB; [3]): > 50.8 µM

GNNRPVYIPQPRPPHPRI [Apidaecin IA, reference compound]
CC50 (CEM-SS cells; [4]): > 47.4 µM
EC50 (HIV-1IIIB; [3]): > 47.4 µM

GWFDIIKKIASEL [Peptide B4]
CC50 (CEM-SS cells): 38.9 µM
EC50 (HIV-1IIIB; 1IIIB): 10.7 µM

GWFDVVKHIAKRF-NH2 [Peptide D70] [listing 1 of 2 here]
EC50 (HIV-1IIIB; [3]): 2.99 µM

GWFDVVKHIAKRF-NH2 [Peptide D70] [listing 2 of 2 here]
CC50 (CEM-SS cells; [4]): 10.6 µM

GWLKKIESIIDAF [Peptide B8]
CC50 (CEM-SS cells; [6]): > 65.8 µM
EC50 (HIV-1IIIB; [7]): 29.5 µM

H-GFKDLLKGAAKALVKTVLF-NH2 [Ascaphin-8, reference compound]
CC50 (CEM-SS cells): 2.9 µM

H-GLADFLNKAVGKVVDFVKS-NH2 [Desertcolin 1, reference compound]
CC50 (CEM-SS cells): > 49.9 µM
EC50 (HIV-1IIIB; 1IIIB): > 49.9 µM

H-GLLGLLGSVVSHVVPAIVGHF-NH2 [Maculatin 1.3, reference compound]
CC50 (CEM-SS cells): 8.02 µM

HVDKKVADKVLLLKQLRIMRLLTRL [Spinigerin, reference compound]
toxicity to human cells at (CEM-SS cells): ≥ 25 µM
CC50 (CEM-SS cells; human, 6 days): > 33.3 µM

IKWKKLLRAAKRIL-NH2 [Peptide D74]
CC50 (CEM-SS cells; [4]): 1.3 µM
EC50 (HIV-1IIIB; [3]): > 57.6 µM

ILGPVLGLVSDTLDDVLGIL [Maximin H5, reference compound]
CC50 (CEM-SS cells; [8]): > 49.4 µM
EC50 (HIV-1IIIB; Table 3, CEM-SS cells): > 49.4 µM

ILGPVLGLVSRTLRRVLGIL [Maximin H5r3]
CC50 (CEM-SS cells; [8]): 8.7 µM
EC50 (HIV-1IIIB; Table 3, CEM-SS cells): 2.2 µM

INLKAIAALAKKLL [Mastoparan M, reference compound]
CC50 (CEM-SS cells; [4]): > 67.6 µM
EC50 (HIV-1IIIB; [3]): > 67.6 µM

KGRGKQGGKVRAKAKTRSS [Parasin I, reference compound]
CC50 (CEM-SS cells; [4]): > 50 µM
EC50 (HIV-1IIIB; [3]): > 50 µM

KRIVQRIKDFLRNLVPRTES [KR-20]
CC50 at 6 days [1]: > 40.5 µM

LLGDLLRKSKEKIGKEFKRIVQR-NH2 [LL-23]
CC50 at 6 days [1]: > 35.4 µM

LLKELWTKIKGAGKAVLGKIKGLL [Ponericin L2, reference compound]
CC50 (CEM-SS cells; [4]): 24.7 µM
EC50 (HIV-1IIIB; [3]): 1.4 µM

NLVSGLIEARKYLEQLHRKLKNRKV [Peptide D88] [listing 1 of 2 here]
EC50 (HIV-1IIIB; [3]): > 33.3 µM

NLVSGLIEARKYLEQLHRKLKNRKV [Peptide D88] [listing 2 of 2 here]
CC50 (CEM-SS cells; [4]): > 33.3 µM

RPKHPIKHQGLPQEVLNENLLRF [Isracidin, reference compound]
CC50 (CEM-SS cells; [4]): > 36.2 µM
EC50 (HIV-1IIIB; [3]): > 36.2 µM

RQRVEELSKFSKKGAAARRRK [Misgurin, reference compound]
CC50 (CEM-SS cells; [4]): > 40 µM
EC50 (HIV-1IIIB; [3]): > 40 µM

SLSRFLRFLKIVYRRAF-NH2 [Peptide D98]
CC50 (CEM-SS cells; [4]): 8.6 µM
EC50 (HIV-1IIIB; [3]): 0.83 µM

SWKSMAKKLKEYMEKLKQRA [Latarcin 3a, reference compound]
EC50 (HIV-1IIIB; [5]): ~100 µg/mL

VDKPDYRPRPRPPNM [Metalnikowin I, reference compound]
CC50 (CEM-SS cells; [4]): > 54.4 µM
EC50 (HIV-1IIIB; [3]): > 54.4 µM
